Test results: PubChem BioAssay AID1259407 (Chemical Carcinogenesis Research Information System (CCRIS), 2018)
Calls of active or inactive are those of the source. How the calls were made is not given here.

Test system: CCRIS mutagenicity, Ames/micronucleus/aberration tests
Assay: CCRIS mutagenicity studies
[1] = Test System: AMES SALMONELLA TYPHIMURIUM, Strain/Indicator: TA100, Metabolic Activation: NONE, Method: STANDARD PLATE
[2] = Test System: AMES SALMONELLA TYPHIMURIUM, Strain/Indicator: TA97, Metabolic Activation: NONE, Method: PREINCUBATION
[3] = Test System: AMES SALMONELLA TYPHIMURIUM, Strain/Indicator: TA98, Metabolic Activation: NONE, Method: PREINCUBATION
[4] = Test System: AMES SALMONELLA TYPHIMURIUM, Strain/Indicator: TA100, Metabolic Activation: NONE, Method: PREINCUBATION
[5] = Test System: AMES SALMONELLA TYPHIMURIUM, Strain/Indicator: TA98, Metabolic Activation: NONE, Method: STANDARD PLATE

**Q.** What does the source list for `O=C(NCc1ccccc1)C1CO1` (stereo unspecified)?
**A.** mutagenic call (Test System: AMES SALMONELLA TYPHIMURIUM, Strain/Indicator: TA100, Metabolic Activation: MOUSE, LIVER, S-9, AROCLOR 1254, Method: STANDARD PLATE): active; positive; mutagenic call [1]: active; positive

**Q.** How did the mutagenic call (Test System: AMES SALMONELLA TYPHIMURIUM, Strain/Indicator: TA98, Metabolic Activation: RAT, LIVER, S-9, PHENOBARBITAL, Method: STANDARD PLATE) turn out when `COc1cc(OC)c2nc3occc3c(OC)c2c1` was run?
**A.** active; positive

**Q.** What about the mutagenic call (Test System: AMES SALMONELLA TYPHIMURIUM, Strain/Indicator: TA100, Metabolic Activation: RAT, LIVER, S-9, PHENOBARBITAL, Method: STANDARD PLATE) of the same compound?
**A.** active; positive

**Q.** How did the mutagenic call (End Point: In vitro chromosomal aberrations, Test System: Chinese hamster ovary (CHO-K1) cells, Metabolic Activation: None) turn out when `CCN(CC)C(=O)c1cccc(C)c1` was run?
**A.** inactive; negative

**Q.** And the mutagenic call (End Point: In vitro chromosomal aberrations, Test System: Chinese hamster ovary (CHO-K1) cells, Metabolic Activation: Rat, Liver, S-9, Aroclor 1254)?
**A.** inactive; negative

**Q.** And the mutagenic call (Test System: AMES SALMONELLA TYPHIMURIUM, Strain/Indicator: TA97, Metabolic Activation: HAMSTER, LIVER, S-9, AROCLOR 1254 (10%), Method: PREINCUBATION)?
**A.** inactive; negative

**Q.** What about the mutagenic call (Test System: AMES SALMONELLA TYPHIMURIUM, Strain/Indicator: TA97, Metabolic Activation: HAMSTER, LIVER, S-9, AROCLOR 1254 (30%), Method: PREINCUBATION) of the same compound?
**A.** inactive; negative

**Q.** And the mutagenic call [2]?
**A.** inactive; negative

**Q.** What about the mutagenic call (Test System: AMES SALMONELLA TYPHIMURIUM, Strain/Indicator: TA97, Metabolic Activation: RAT, LIVER, S-9, AROCLOR 1254 (10%), Method: PREINCUBATION) of the same compound?
**A.** inactive; negative

**Q.** What about the mutagenic call (Test System: AMES SALMONELLA TYPHIMURIUM, Strain/Indicator: TA97, Metabolic Activation: RAT, LIVER, S-9, AROCLOR 1254 (30%), Method: PREINCUBATION) of the same compound?
**A.** inactive; negative

**Q.** And the mutagenic call (Test System: AMES SALMONELLA TYPHIMURIUM, Strain/Indicator: TA98, Metabolic Activation: HAMSTER, LIVER, S-9, AROCLOR 1254 (10 OR 30%), Method: PREINCUBATION)?
**A.** inactive; negative

**Q.** And the mutagenic call [3]?
**A.** inactive; negative

**Q.** And the mutagenic call (Test System: AMES SALMONELLA TYPHIMURIUM, Strain/Indicator: TA98, Metabolic Activation: RAT, LIVER, S-9, AROCLOR 1254 (10 OR 30%), Method: PREINCUBATION)?
**A.** inactive; negative

**Q.** What about the mutagenic call (Test System: AMES SALMONELLA TYPHIMURIUM, Strain/Indicator: TA100, Metabolic Activation: HAMSTER, LIVER, S-9, AROCLOR 1254 (10 OR 30%), Method: PREINCUBATION) of the same compound?
**A.** inactive; negative

**Q.** And the mutagenic call [4]?
**A.** inactive; negative

**Q.** What about the mutagenic call (Test System: AMES SALMONELLA TYPHIMURIUM, Strain/Indicator: TA100, Metabolic Activation: RAT, LIVER, S-9, AROCLOR 1254 (10 OR 30%), Method: PREINCUBATION) of the same compound?
**A.** inactive; negative

**Q.** What about the mutagenic call (Test System: AMES SALMONELLA TYPHIMURIUM, Strain/Indicator: TA1535, Metabolic Activation: HAMSTER, LIVER, S-9, AROCLOR 1254 (10%), Method: PREINCUBATION) of the same compound?
**A.** inactive; negative

**Q.** What about the mutagenic call (Test System: AMES SALMONELLA TYPHIMURIUM, Strain/Indicator: TA1535, Metabolic Activation: HAMSTER, LIVER, S-9, AROCLOR 1254 (30%), Method: PREINCUBATION) of the same compound?
**A.** inactive; negative

**Q.** And the mutagenic call (Test System: AMES SALMONELLA TYPHIMURIUM, Strain/Indicator: TA1535, Metabolic Activation: NONE, Method: PREINCUBATION)?
**A.** inactive; negative

**Q.** What about the mutagenic call (Test System: AMES SALMONELLA TYPHIMURIUM, Strain/Indicator: TA1535, Metabolic Activation: RAT, LIVER, S-9, AROCLOR 1254 (10%), Method: PREINCUBATION) of the same compound?
**A.** inactive; negative

**Q.** And the mutagenic call (Test System: AMES SALMONELLA TYPHIMURIUM, Strain/Indicator: TA1535, Metabolic Activation: RAT, LIVER, S-9, AROCLOR 1254 (30%), Method: PREINCUBATION)?
**A.** inactive; negative

**Q.** `COc1ccc(N=O)cc1` was tested. Which mutagenic call [5] did it give?
**A.** active; positive

**Q.** What about the mutagenic call (Test System: AMES SALMONELLA TYPHIMURIUM, Strain/Indicator: TA98, Metabolic Activation: RAT, LIVER, S-9, AROCLOR 1254, Method: STANDARD PLATE) of the same compound?
**A.** active; positive

**Q.** What about the mutagenic call [1] of the same compound?
**A.** active; positive

**Q.** And the mutagenic call (Test System: AMES SALMONELLA TYPHIMURIUM, Strain/Indicator: TA100, Metabolic Activation: RAT, LIVER, S-9, AROCLOR 1254, Method: STANDARD PLATE)?
**A.** active; positive

**Q.** How did the mutagenic call (Test System: AMES SALMONELLA TYPHIMURIUM, Strain/Indicator: TA97, Metabolic Activation: NONE, Method: STANDARD PLATE) turn out when `Nc1nc(N)nc(Cl)n1` was run?
**A.** inactive; negative

**Q.** And the mutagenic call [5]?
**A.** inactive; negative

**Q.** What about the mutagenic call [1] of the same compound?
**A.** inactive; negative

**Q.** For `O=[N+]([O-])c1ccc2oc3ccccc3c2c1`, which mutagenic call (Test System: AMES SALMONELLA TYPHIMURIUM, Strain/Indicator: TA98(1,8-DNP6), Metabolic Activation: NONE, Method: PREINCUBATION) is on record?
**A.** active; positive

**Q.** And the mutagenic call (Test System: AMES SALMONELLA TYPHIMURIUM, Strain/Indicator: TA98(1,8-DNP6), Metabolic Activation: NONE, Method: SUSPENSION)?
**A.** active; positive

**Q.** And the mutagenic call (Test System: AMES SALMONELLA TYPHIMURIUM, Strain/Indicator: TA98(1,8-DNP6), Metabolic Activation: RAT, LIVER, S-9, PCB (5%), Method: PREINCUBATION)?
**A.** active; positive

**Q.** What about the mutagenic call (Test System: AMES SALMONELLA TYPHIMURIUM, Strain/Indicator: TA98(NR), Metabolic Activation: NONE, Method: PREINCUBATION) of the same compound?
**A.** active; positive

**Q.** What about the mutagenic call (Test System: AMES SALMONELLA TYPHIMURIUM, Strain/Indicator: TA98(NR), Metabolic Activation: NONE, Method: SUSPENSION) of the same compound?
**A.** inactive; negative

**Q.** What about the mutagenic call (Test System: AMES SALMONELLA TYPHIMURIUM, Strain/Indicator: TA98(NR), Metabolic Activation: RAT, LIVER, S-9 (10%), Method: PREINCUBATION) of the same compound?
**A.** active; positive

**Q.** What about the mutagenic call (Test System: AMES SALMONELLA TYPHIMURIUM, Strain/Indicator: TA98(NR), Metabolic Activation: RAT, LIVER, S-9, 3-METHYLCHOLANTHRENE (10%), Method: PREINCUBATION) of the same compound?
**A.** active; positive

**Q.** What about the mutagenic call (Test System: AMES SALMONELLA TYPHIMURIUM, Strain/Indicator: TA98(NR), Metabolic Activation: RAT, LIVER, S-9, BETA-NAPHTHOFLAVONE (10%), Method: PREINCUBATION) of the same compound?
**A.** active; positive

**Q.** And the mutagenic call (Test System: AMES SALMONELLA TYPHIMURIUM, Strain/Indicator: TA98(NR), Metabolic Activation: RAT, LIVER, S-9, PCB (5%), Method: PREINCUBATION)?
**A.** active; positive

**Q.** And the mutagenic call (Test System: AMES SALMONELLA TYPHIMURIUM, Strain/Indicator: TA98(NR), Metabolic Activation: RAT, LIVER, S-9, PCB (10%), Method: PREINCUBATION)?
**A.** active; positive

**Q.** And the mutagenic call (Test System: AMES SALMONELLA TYPHIMURIUM, Strain/Indicator: TA98(NR), Metabolic Activation: RAT, LIVER, S-9, PHENOBARBITAL (10%), Method: PREINCUBATION)?
**A.** active; positive

**Q.** What about the mutagenic call [3] of the same compound?
**A.** active; positive

**Q.** And the mutagenic call (Test System: AMES SALMONELLA TYPHIMURIUM, Strain/Indicator: TA98, Metabolic Activation: NONE, Method: SUSPENSION)?
**A.** active; positive

**Q.** What about the mutagenic call (Test System: AMES SALMONELLA TYPHIMURIUM, Strain/Indicator: TA98, Metabolic Activation: RAT, LIVER, S-9, PCB (5%), Method: PREINCUBATION) of the same compound?
**A.** active; positive

**Q.** What about the mutagenic call (Test System: AMES SALMONELLA TYPHIMURIUM, Strain/Indicator: TA98, Metabolic Activation: RAT, LIVER, S-9, PCB, Method: SUSPENSION) of the same compound?
**A.** active; positive

**Q.** And the mutagenic call [4]?
**A.** inactive; negative

**Q.** And the mutagenic call (Test System: AMES SALMONELLA TYPHIMURIUM, Strain/Indicator: TA100, Metabolic Activation: NONE, Method: SUSPENSION)?
**A.** inactive; negative

**Q.** And the mutagenic call (Test System: AMES SALMONELLA TYPHIMURIUM, Strain/Indicator: TA100, Metabolic Activation: RAT, LIVER, S-9, PCB (5%), Method: PREINCUBATION)?
**A.** inactive; negative

**Q.** What about the mutagenic call (Test System: AMES SALMONELLA TYPHIMURIUM, Strain/Indicator: TA100, Metabolic Activation: RAT, LIVER, S-9, PCB, Method: SUSPENSION) of the same compound?
**A.** inactive; negative

**Q.** With `CC(C)COC(=O)Cc1ccccc1` as the compound, how does the mutagenic call [2] read?
**A.** inactive; negative

**Q.** And the mutagenic call (Test System: AMES SALMONELLA TYPHIMURIUM, Strain/Indicator: TA97, Metabolic Activation: RAT, LIVER, S-9, AROCLOR 1254, Method: PREINCUBATION)?
**A.** inactive; negative

**Q.** What about the mutagenic call (Test System: AMES SALMONELLA TYPHIMURIUM, Strain/Indicator: TA102, Metabolic Activation: NONE, Method: PREINCUBATION) of the same compound?
**A.** inactive; negative

**Q.** And the mutagenic call (Test System: AMES SALMONELLA TYPHIMURIUM, Strain/Indicator: TA102, Metabolic Activation: RAT, LIVER, S-9, AROCLOR 1254, Method: PREINCUBATION)?
**A.** inactive; negative

**Q.** With `CC(C)CCC[C@@H](C)[C@H]1CC[C@H]2[C@@H]3C[C@@H]4N(N5C(=O)c6ccccc6C5=O)[C@@]45C[C@@H](Cl)CC[C@]5(C)[C@H]3CC[C@]12C` (stereo partly specified) as the compound, how does the mutagenic call (Test System: AMES SALMONELLA TYPHIMURIUM, Strain/Indicator: TA97A, Metabolic Activation: NONE, Method: STANDARD PLATE) read?
**A.** inactive; negative

**Q.** And the mutagenic call [1]?
**A.** inactive; negative

**Q.** And the mutagenic call (Test System: AMES SALMONELLA TYPHIMURIUM, Strain/Indicator: TA102, Metabolic Activation: NONE, Method: STANDARD PLATE)?
**A.** inactive; negative

**Q.** What about the mutagenic call (Test System: AMES SALMONELLA TYPHIMURIUM, Strain/Indicator: TA104, Metabolic Activation: NONE, Method: STANDARD PLATE) of the same compound?
**A.** inactive; negative
